Target: human STING WT (6His-tagged STING protein) (Homo sapiens (Human), UniProt Q86WV6)
Assay: HTRF binding assay (STING binding assay)
Settings: inhibition of d2-labeled 2',3'-cGAMP binding to 6His-tagged STING
Description: Example 202 HTRF Binding Assay
Asymmetric bis-benzimidazole compounds (BBI) of the invention were assessed in a biochemical homogeneous time resolved fluorescence (HTRF) binding assay adapted from the human STING WT binding assay (“HTRF, A guide to Homogeneous Time Resolved Fluorescence”, (2021) PerkinElmer Cisbio; Mathis, G. Clinical Chemistry, 41(9):1391-1397). Briefly, 6His-tagged STING protein was incubated with terbium cryptate-labeled anti-6His antibody, d2-labeled 2′,3′-cGAMP, and varying concentrations of test articles in a 384-well plate format. Donor and acceptor emission signals were measured for each well by plate reader at […], respectively, and the ratio of the signals used to calculate percent inhibition of d2-labeled 2′,3′-cGAMP, cyclic dinucleotide binding.

Sequence of human STING WT (6His-tagged STING protein) (Q86WV6 whole entry): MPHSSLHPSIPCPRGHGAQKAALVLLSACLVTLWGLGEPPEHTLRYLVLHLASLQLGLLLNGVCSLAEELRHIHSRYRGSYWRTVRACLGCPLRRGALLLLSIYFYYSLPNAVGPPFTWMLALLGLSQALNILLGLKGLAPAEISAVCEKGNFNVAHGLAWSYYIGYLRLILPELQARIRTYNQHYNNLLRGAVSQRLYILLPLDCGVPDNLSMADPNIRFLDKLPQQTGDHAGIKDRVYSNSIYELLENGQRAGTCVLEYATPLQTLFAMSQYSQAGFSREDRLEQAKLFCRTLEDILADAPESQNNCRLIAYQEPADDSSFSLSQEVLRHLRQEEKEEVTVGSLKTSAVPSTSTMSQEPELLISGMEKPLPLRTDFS

Row | Compound | IC50 [nM]
1 | CCn1nc(C)cc1C(=O)Nc1nc2cc(C(N)=O)cc(OCCCn3c(NC(=O)c4cc(C)nn4CC)nc4cc(C(N)=O)cc(OCCCN5CCNCC5)c43)c2n1C [BBI-6] | 51
2 | CCn1nc(C)cc1C(=O)Nc1nc2cc(C(N)=O)cc(OCCCCn3c(NC(=O)c4cc(C)nn4CC)nc4cc(C(N)=O)cc(OCCCN5CCNCC5)c43)c2n1C [BBI-3, 1-(4-((5-carbamoyl-2-(1-ethyl-3-methyl-1H-pyrazole-5-carboxamido)-1-methyl-1H-benzo[d]imidazol-7-yl)oxy)butyl)-2-(1-ethyl-3-methyl-1H-pyrazole-5-carboxamido)-7-(3-(piperazin-1-yl)propoxy)-1H-benzo[d]imidazole-5-carboxamide] | 250
3 | CCn1nc(C)cc1C(=O)Nc1nc2cc(C(N)=O)cc(OCCCCn3c(NC(=O)c4cc(C)nn4CC)nc4cc(C(N)=O)cc(OC)c43)c2n1C [BBI-2, 1-[4-[6-carbamoyl-2-[(2-ethyl-5-methyl-pyrazole-3-carbonyl)amino]-3-methyl-benzimidazol-4-yl]oxybutyl]-2-[(2-ethyl-5-methyl-pyrazole-3-carbonyl)amino]-7-methoxy-benzimidazole-5-carboxamide] | 73
4 | CCn1nc(C)cc1C(=O)Nc1nc2cc(C(N)=O)cc(OCCn3c(NC(=O)c4cc(C)nn4CC)nc4cc(C(N)=O)cc(OC)c43)c2n1C [BBI-5] | 210
5 | CCn1nc(C)cc1C(=O)Nc1nc2cc(C(N)=O)cc(OCCCn3c(NC(=O)c4cc(C)nn4CC)nc4cc(C(N)=O)ccc43)c2n1C [BBI-4] | 440
6 | CCn1nc(C)cc1C(=O)Nc1nc2cc(C(N)=O)cc(OC/C=C/Cn3c(NC(=O)c4cc(C)nn4CC)nc4cc(C(N)=O)cc(OCCCN5CCNCC5)c43)c2n1C [BBI-7] | 150
7 | CCn1nc(C)cc1C(=O)Nc1nc2cc(C(N)=O)cc(OCCCn3c(NC(=O)c4cc(C)nn4CC)nc4cc(C(N)=O)cc(OC)c43)c2n1C [BBI-1, 1-(3-((5-carbamoyl-2-(1-ethyl-3-methyl-1H-pyrazole-5-carboxamido)-1-methyl-1H-benzo[d]imidazol-7-yl)oxy)propyl)-2-(1-ethyl-3-methyl-1H-pyrazole-5-carboxamido)-7-methoxy-1H-benzo[d]imidazole-5-carboxamide] | 57
